Measured values as given in PubChem BioAssay (NCI).
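Cultured in 96-well plates, cells were exposed to test compound for 48 hours across five concentrations. GI50 marks 50% less growth. TGI: total growth inhibition.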

Assays:
Assay in all cases: NCI-60 cell line screen, 48 h
[1] = tested on: 786-0 renal
[2] = tested on: A549 NSCLC
[3] = tested on: ACHN renal
[4] = tested on: BT-549 breast
[5] = tested on: CAKI-1 renal
[6] = tested on: CCRF-CEM leukemia
[7] = tested on: COLO 205 colon
[8] = tested on: DU-145 prostate
[9] = tested on: EKVX NSCLC
[10] = tested on: HCC-2998 colon
[11] = tested on: HCT-116 colon
[12] = tested on: HCT-15 colon
[13] = tested on: HL-60(TB) leukemia
[14] = tested on: HOP-62 NSCLC
[15] = tested on: HT29 colon
[16] = tested on: IGROV1 ovarian
[17] = tested on: K-562 leukemia
[18] = tested on: KM12 colon
[19] = tested on: LOX IMVI melanoma
[20] = tested on: M14 melanoma
[21] = tested on: MALME-3M melanoma
[22] = tested on: MCF7 breast
[23] = tested on: MDA-MB-231 breast
[24] = tested on: MDA-MB-435
[25] = tested on: MDA-N
[26] = tested on: MOLT-4 leukemia
[27] = tested on: NCI-H226 lung
[28] = tested on: NCI-H23 lung
[29] = tested on: NCI-H522 lung
[30] = tested on: NCI/ADR-RES ovarian
[31] = tested on: OVCAR-3 ovarian
[32] = tested on: OVCAR-5 ovarian
[33] = tested on: OVCAR-8 ovarian
[34] = tested on: PC-3 prostate
[35] = tested on: RPMI-8226 leukemia
[36] = tested on: RXF 393 renal
[37] = tested on: SF-268 CNS
[38] = tested on: SF-295 CNS
[39] = tested on: SF-539 CNS
[40] = tested on: SK-MEL-28 melanoma
[41] = tested on: SK-MEL-5 melanoma
[42] = tested on: SK-OV-3 ovarian
[43] = tested on: SN12C renal
[44] = tested on: SNB-19 CNS
[45] = tested on: SNB-75 CNS
[46] = tested on: SR leukemia
[47] = tested on: SW-620 colon
[48] = tested on: T-47D breast
[49] = tested on: TK-10 renal
[50] = tested on: U251 CNS
[51] = tested on: UACC-257 melanoma
[52] = tested on: UACC-62 melanoma
[53] = tested on: UO-31 renal
[54] = tested on: A498 renal
[55] = tested on: HOP-92 NSCLC
[56] = tested on: HS 578T breast
[57] = tested on: NCI-H460 lung
[58] = tested on: OVCAR-4 ovarian
[59] = tested on: SK-MEL-2 melanoma

O=C(CCCN1CCC2(CC1)CC(=O)N(N1CCOCC1)C2=O)c1ccccc1
TGI [1]: > 100 µM
TGI [2]: > 100 µM
TGI [3]: > 100 µM
TGI [4]: 27.9 µM
TGI [5]: > 100 µM
TGI [6]: > 100 µM
TGI [7]: > 100 µM
TGI [8]: > 100 µM
TGI [9]: > 100 µM
TGI [10]: > 100 µM
TGI [11]: > 100 µM
TGI [12]: > 100 µM
TGI [13]: > 100 µM
TGI [14]: > 100 µM
TGI [15]: > 100 µM
TGI [16]: > 100 µM
TGI [17]: > 100 µM
TGI [18]: > 100 µM
TGI [19]: > 100 µM
TGI [20]: > 100 µM
TGI [21]: > 100 µM
TGI [22]: > 100 µM
TGI [23]: > 100 µM
TGI [24]: 35.4 µM
TGI [25]: > 100 µM
TGI [26]: > 100 µM
TGI [27]: > 100 µM
TGI [28]: > 100 µM
TGI [29]: > 100 µM
TGI [30]: > 100 µM
TGI [31]: > 100 µM
TGI [32]: > 100 µM
TGI [33]: > 100 µM
TGI [34]: > 100 µM
TGI [35]: > 100 µM
TGI [36]: > 100 µM
TGI [37]: > 100 µM
TGI [38]: > 100 µM
TGI [39]: > 100 µM
TGI [40]: > 100 µM
TGI [41]: > 100 µM
TGI [42]: > 100 µM
TGI [43]: > 100 µM
TGI [44]: > 100 µM
TGI [45]: > 100 µM
TGI [46]: > 100 µM
TGI [47]: > 100 µM
TGI [48]: > 100 µM
TGI [49]: > 100 µM
TGI [50]: > 100 µM
TGI [51]: > 100 µM
TGI [52]: > 100 µM
TGI [53]: > 100 µM

OB1OCc2cc(/C=C/c3cccc(C(F)(F)F)c3)ccc21
GI50 [1]: 0.365 µM
TGI [1]: 10.1 µM
GI50 [54]: 1.13 µM
TGI [54]: 9.22 µM
GI50 [2]: 0.695 µM
TGI [2]: 19.6 µM
GI50 [3]: 0.332 µM
TGI [3]: 1.34 µM
GI50 [4]: 2.26 µM
TGI [4]: > 100 µM
GI50 [5]: 0.349 µM
TGI [5]: 10.2 µM
GI50 [6]: 0.459 µM
TGI [6]: 33.7 µM
GI50 [7]: 2.31 µM
TGI [7]: > 100 µM
GI50 [8]: 0.554 µM
TGI [8]: 15.3 µM
GI50 [9]: 3.65 µM
TGI [9]: > 100 µM
GI50 [10]: 2.54 µM
TGI [10]: > 100 µM
GI50 [11]: 0.89 µM
TGI [11]: 11.8 µM
GI50 [12]: 1.33 µM
TGI [12]: > 100 µM
GI50 [13]: 0.298 µM
TGI [13]: 5.38 µM
GI50 [14]: 0.483 µM
TGI [14]: 17.4 µM
GI50 [55]: 0.712 µM
TGI [55]: 10.7 µM
GI50 [56]: 4.49 µM
TGI [56]: 66.6 µM
GI50 [15]: 1.44 µM
TGI [15]: > 100 µM
GI50 [16]: 1.88 µM
TGI [16]: 60.2 µM
GI50 [17]: 0.93 µM
TGI [17]: 24.2 µM
GI50 [18]: 2.26 µM
TGI [18]: > 100 µM
GI50 [19]: 0.302 µM
TGI [19]: 1.25 µM
GI50 [20]: 0.653 µM
TGI [20]: 35.3 µM
GI50 [21]: 7.65 µM
TGI [21]: 54.3 µM
GI50 [22]: 0.452 µM
TGI [22]: 44.4 µM
GI50 [23]: 2.62 µM
TGI [23]: 11.1 µM
GI50 [24]: 5.29 µM
TGI [24]: > 100 µM
GI50 [26]: 0.454 µM
TGI [26]: 12.9 µM
GI50 [27]: 2.52 µM
TGI [27]: 56.4 µM
GI50 [28]: 0.625 µM
TGI [28]: 80.6 µM
GI50 [57]: 0.48 µM
TGI [57]: 22.8 µM
GI50 [29]: 0.991 µM
TGI [29]: 87.9 µM
GI50 [30]: 0.544 µM
TGI [30]: 23.9 µM
GI50 [31]: 1.37 µM
TGI [31]: 17.8 µM
GI50 [58]: 1.86 µM
TGI [58]: 17.3 µM
GI50 [32]: 5.15 µM
TGI [32]: > 100 µM
GI50 [33]: 0.918 µM
TGI [33]: 24.2 µM
GI50 [34]: 1.88 µM
TGI [34]: > 100 µM
GI50 [35]: 2.38 µM
TGI [35]: > 100 µM
GI50 [36]: 2.23 µM
TGI [36]: 11.4 µM
GI50 [37]: 0.564 µM
TGI [37]: 48.1 µM
GI50 [38]: 0.432 µM
TGI [38]: 16.1 µM
GI50 [39]: 0.405 µM
TGI [39]: 11.1 µM
GI50 [59]: 46.1 µM
TGI [59]: > 100 µM
GI50 [40]: 18.8 µM
TGI [40]: > 100 µM
GI50 [41]: 2.05 µM
TGI [41]: 81.4 µM
GI50 [42]: 2.9 µM
TGI [42]: 63.5 µM
GI50 [43]: 1.46 µM
TGI [43]: > 100 µM
GI50 [44]: 0.765 µM
TGI [44]: 48.7 µM
GI50 [45]: 0.852 µM
TGI [45]: 6.2 µM
GI50 [46]: 0.318 µM
TGI [46]: 11.6 µM
GI50 [47]: 1.57 µM
TGI [47]: > 100 µM
GI50 [48]: 0.425 µM
TGI [48]: > 100 µM
GI50 [49]: 2.46 µM
TGI [49]: 34.1 µM
GI50 [50]: 0.64 µM
TGI [50]: 17.3 µM
GI50 [51]: 4.31 µM
TGI [51]: > 100 µM
GI50 [52]: 0.551 µM
TGI [52]: 63.4 µM
GI50 [53]: 0.551 µM
TGI [53]: 20.3 µM

CC1(C)[C@@H]2CC[C@@]1(C)[C@@H]1O[C@@H](O[C@@H](CN)c3cc(Cl)c(OCc4ccccc4)c(OCc4ccccc4)c3)C[C@H]21
TGI [54]: 0.344 µM
TGI [3]: 0.306 µM
TGI [5]: 0.301 µM
TGI [6]: 0.364 µM
TGI [8]: 0.332 µM
TGI [9]: 0.301 µM
TGI [13]: 0.373 µM
TGI [15]: 0.284 µM
TGI [17]: 0.478 µM
TGI [18]: 0.305 µM
TGI [21]: 0.342 µM
TGI [22]: 0.262 µM
TGI [23]: 0.288 µM
TGI [24]: 0.297 µM
TGI [25]: 0.284 µM
TGI [26]: 0.341 µM
TGI [29]: 0.357 µM
TGI [31]: 0.306 µM
TGI [58]: 0.298 µM
TGI [32]: 0.302 µM
TGI [34]: 0.292 µM
TGI [35]: 0.225 µM
TGI [36]: 0.288 µM
TGI [59]: 0.311 µM
TGI [40]: 0.384 µM
TGI [41]: 0.324 µM
TGI [46]: 0.222 µM
TGI [47]: 0.43 µM
TGI [50]: 0.293 µM
TGI [51]: 0.322 µM
